Source: the supplement of paper PMC10627819

Key:
S. pneumoniae D39V [1] = test: Bliss interaction score (quartile over a dose matrix) (fitness difference); higher = more antagonism (negative = synergy)
Outline: (§1)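 Growth was read as OD595 when cultures entered stationary phase, and each value was divided by the plate's robust no-drug mean and capped at 1. This normalised ratio is the fitness value, and fitness for each single drug came from the combination data. The Bliss score subtracts the expected fitness, taken as the product, from the observed fitness and is given as quartiles across technical, biological and donor/recipient replicates.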

B. subtilis 168 [2] = test: as above
Outline: as §1

S. aureus DSM 20231 [3] = test: as above
Outline: as §1

S. aureus Newman [4] = test: as above
Outline: as §1

S. pneumoniae D39V [5] = test: fitness (endpoint OD595 vs no drug) (fraction); higher = more growth
Outline: (§2)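 At 37 °C, bacteria in TSB, LB Lennox or CY were grown in 384-well plates from a starting OD595 of 0.01. OD595 was measured every 30 min for 14 h, with the first reading used as background. Fitness is the optical density at the switch to stationary phase as a fraction of the robust mean of no-drug control wells, capped at 1.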

B. subtilis 168 [6] = test: as above
Outline: as §2

S. aureus DSM 20231 [7] = test: as above
Outline: as §2

S. aureus Newman [8] = test: as above
Outline: as §2

[9] = first compound 0.125 µg/mL, partner 0.0625 µg/mL
[10] = first compound 0.125 µg/mL, partner 0.125 µg/mL
[11] = first compound 0.125 µg/mL, partner 0.25 µg/mL
[12] = first compound 0.25 µg/mL, partner 0.0625 µg/mL
[13] = first compound 0.25 µg/mL, partner 0.125 µg/mL
[14] = first compound 0.25 µg/mL, partner 0.25 µg/mL
[15] = first compound 0.5 µg/mL, partner 0.0625 µg/mL
[16] = first compound 0.5 µg/mL, partner 0.125 µg/mL
[17] = first compound 0.5 µg/mL, partner 0.25 µg/mL
[18] = first compound 0.5 µg/mL, partner 0.5 µg/mL, one replicate
[19] = first compound 0.5 µg/mL, partner 1 µg/mL, one replicate
[20] = first compound 1 µg/mL, partner 12.5 µg/mL
[21] = first compound 1 µg/mL, partner 25 µg/mL
[22] = first compound 2 µg/mL, partner 12.5 µg/mL
[23] = first compound 2 µg/mL, partner 25 µg/mL
[24] = first compound 0.125 µg/mL, partner 25 µg/mL
[25] = first compound 0.25 µg/mL, partner 12.5 µg/mL
[26] = first compound 0.5 µg/mL, partner 12.5 µg/mL
[27] = first compound 0.5 µg/mL, partner 25 µg/mL
[28] = first compound 0.5 µg/mL, partner 50 µg/mL
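Throughout, for Bliss interaction score (quartile over a dose matrix): first quartile when negative (synergy) and third quartile when positive (antagonism).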
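Throughout, for fitness (endpoint OD595 vs no drug): OD595 on entry to stationary phase over no-drug wells; at most 1.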

## CCCCCCCCCC(=O)N[C@@H](Cc1c[nH]c2ccccc12)C(=O)N[C@H](CC(N)=O)C(=O)N[C@@H](CC(=O)O)C(=O)N[C@@H]1C(=O)NCC(=O)N[C@@H](CCCN)C(=O)N[C@@H](CC(=O)O)C(=O)N[C@H](C)C(=O)N[C@@H](CC(=O)O)C(=O)NCC(=O)N[C@H](CO)C(=O)N[C@@H]([C@H](C)CC(=O)O)C(=O)N[C@@H](CC(=O)c2ccccc2N)C(=O)O[C@@H]1C [Daptomycin] + CC1=C\[C@@H](O)CC(=O)Cc2nc(co2)C(=O)N2CCC=C2C(=O)O[C@H](C(C)C)[C@H](C)/C=C/C(=O)NC\C=C\1 [Virginiamycin M1]
S. pneumoniae D39V [1]
  Bliss interaction score: 0.0768
B. subtilis 168 [2]
  Bliss interaction score: -0.0543
S. aureus DSM 20231 [3]
  Bliss interaction score: 0.0655
S. aureus Newman [4]
  Bliss interaction score: 0.0243
S. pneumoniae D39V [5]; first compound 1 µg/mL, partner 0.15 µg/mL, one replicate
  fitness: 0.892
S. pneumoniae D39V [5]; first compound 1 µg/mL, partner 0.3 µg/mL, one replicate
  fitness: 0.754
S. pneumoniae D39V [5]; first compound 1 µg/mL, partner 0.5 µg/mL
  fitness: 0.991
S. pneumoniae D39V [5]; first compound 1 µg/mL, partner 1 µg/mL
  fitness: 0.992
S. pneumoniae D39V [5]; first compound 1 µg/mL, partner 2 µg/mL
  fitness: 0.909
S. pneumoniae D39V [5]; first compound 2 µg/mL, partner 0.15 µg/mL, one replicate
  fitness: 0.893
S. pneumoniae D39V [5]; first compound 2 µg/mL, partner 0.3 µg/mL, one replicate
  fitness: 0.84
S. pneumoniae D39V [5]; first compound 2 µg/mL, partner 0.5 µg/mL
  fitness: 0.984
S. pneumoniae D39V [5]; first compound 2 µg/mL, partner 1 µg/mL
  fitness: ≥ 1
S. pneumoniae D39V [5]; first compound 2 µg/mL, partner 2 µg/mL
  fitness: 0.927
S. pneumoniae D39V [5]; first compound 4 µg/mL, partner 0.15 µg/mL, one replicate
  fitness: 0.924
S. pneumoniae D39V [5]; first compound 4 µg/mL, partner 0.3 µg/mL, one replicate
  fitness: 0.877
S. pneumoniae D39V [5]; first compound 4 µg/mL, partner 0.5 µg/mL
  fitness: 0.976
S. pneumoniae D39V [5]; first compound 4 µg/mL, partner 1 µg/mL
  fitness: 0.997
S. pneumoniae D39V [5]; first compound 4 µg/mL, partner 2 µg/mL
  fitness: 0.919
B. subtilis 168 [6]; [9]
  fitness: 0.946
B. subtilis 168 [6]; [10]
  fitness: 0.92
B. subtilis 168 [6]; [11]
  fitness: 0.93
B. subtilis 168 [6]; [12]
  fitness: 0.924
B. subtilis 168 [6]; [13]
  fitness: 0.931
B. subtilis 168 [6]; [14]
  fitness: 0.934
B. subtilis 168 [6]; [15]
  fitness: 0.894
B. subtilis 168 [6]; [16]
  fitness: 0.862
B. subtilis 168 [6]; [17]
  fitness: 0.891
B. subtilis 168 [6]; first compound 1 µg/mL, partner 0.0625 µg/mL, one replicate
  fitness: 0.702
B. subtilis 168 [6]; first compound 1 µg/mL, partner 0.125 µg/mL, one replicate
  fitness: 0.698
B. subtilis 168 [6]; first compound 1 µg/mL, partner 0.25 µg/mL, one replicate
  fitness: 0.765
S. aureus DSM 20231 [7]; first compound 0.125 µg/mL, partner 0.0625 µg/mL, one replicate
  fitness: 0.898
S. aureus DSM 20231 [7]; first compound 0.125 µg/mL, partner 0.125 µg/mL, one replicate
  fitness: ≥ 1
S. aureus DSM 20231 [7]; [11]
  fitness: 0.944
S. aureus DSM 20231 [7]; first compound 0.125 µg/mL, partner 0.5 µg/mL, one replicate
  fitness: 0.906
S. aureus DSM 20231 [7]; first compound 0.125 µg/mL, partner 1 µg/mL, one replicate
  fitness: 0.887
S. aureus DSM 20231 [7]; first compound 0.25 µg/mL, partner 0.0625 µg/mL, one replicate
  fitness: 0.855
S. aureus DSM 20231 [7]; first compound 0.25 µg/mL, partner 0.125 µg/mL, one replicate
  fitness: ≥ 1
S. aureus DSM 20231 [7]; [14]
  fitness: 0.918
S. aureus DSM 20231 [7]; first compound 0.25 µg/mL, partner 0.5 µg/mL, one replicate
  fitness: 0.92
S. aureus DSM 20231 [7]; first compound 0.25 µg/mL, partner 1 µg/mL, one replicate
  fitness: 0.838
S. aureus DSM 20231 [7]; [15]
  fitness: ≥ 1
S. aureus DSM 20231 [7]; [16]
  fitness: ≥ 1
S. aureus DSM 20231 [7]; [17]
  fitness: ≥ 1
S. aureus DSM 20231 [7]; [18]
  fitness: 0.908
S. aureus DSM 20231 [7]; [19]
  fitness: 0.848
S. aureus DSM 20231 [7]; first compound 1 µg/mL, partner 0.0625 µg/mL
  fitness: ≥ 1
S. aureus DSM 20231 [7]; first compound 1 µg/mL, partner 0.125 µg/mL
  fitness: ≥ 1
S. aureus DSM 20231 [7]; first compound 1 µg/mL, partner 0.25 µg/mL
  fitness: ≥ 1
S. aureus DSM 20231 [7]; first compound 2 µg/mL, partner 0.0625 µg/mL
  fitness: 0.966
S. aureus DSM 20231 [7]; first compound 2 µg/mL, partner 0.125 µg/mL
  fitness: 0.959
S. aureus DSM 20231 [7]; first compound 2 µg/mL, partner 0.25 µg/mL
  fitness: 0.972
S. aureus Newman [8]; [9]
  fitness: ≥ 1
S. aureus Newman [8]; [10]
  fitness: ≥ 1
S. aureus Newman [8]; [11]
  fitness: 0.984
S. aureus Newman [8]; [12]
  fitness: ≥ 1
S. aureus Newman [8]; [13]
  fitness: ≥ 1
S. aureus Newman [8]; [14]
  fitness: 0.999
S. aureus Newman [8]; [15]
  fitness: 0.981
S. aureus Newman [8]; [16]
  fitness: 0.994
S. aureus Newman [8]; [17]
  fitness: 0.975
S. aureus Newman [8]; [18]
  fitness: 0.894
S. aureus Newman [8]; [19]
  fitness: ≥ 1
S. aureus Newman [8]; first compound 0.5 µg/mL, partner 2 µg/mL, one replicate
  fitness: 0.882
S. aureus Newman [8]; first compound 1 µg/mL, partner 0.5 µg/mL, one replicate
  fitness: 0.864
S. aureus Newman [8]; first compound 1 µg/mL, partner 1 µg/mL, one replicate
  fitness: 0.948
S. aureus Newman [8]; first compound 1 µg/mL, partner 2 µg/mL, one replicate
  fitness: 0.875
S. aureus Newman [8]; first compound 2 µg/mL, partner 0.5 µg/mL, one replicate
  fitness: 0.921
S. aureus Newman [8]; first compound 2 µg/mL, partner 1 µg/mL, one replicate
  fitness: 0.989
S. aureus Newman [8]; first compound 2 µg/mL, partner 2 µg/mL, one replicate
  fitness: 0.856

## CCCCCCCCCC(=O)N[C@@H](Cc1c[nH]c2ccccc12)C(=O)N[C@H](CC(N)=O)C(=O)N[C@@H](CC(=O)O)C(=O)N[C@@H]1C(=O)NCC(=O)N[C@@H](CCCN)C(=O)N[C@@H](CC(=O)O)C(=O)N[C@H](C)C(=O)N[C@@H](CC(=O)O)C(=O)NCC(=O)N[C@H](CO)C(=O)N[C@@H]([C@H](C)CC(=O)O)C(=O)N[C@@H](CC(=O)c2ccccc2N)C(=O)O[C@@H]1C [Daptomycin] + O=C(O[C@@H]1Cc2c(O)cc(O)cc2O[C@@H]1c1cc(O)c(O)c(O)c1)c1cc(O)c(O)c(O)c1 [EGCG]
S. pneumoniae D39V [1]
  Bliss interaction score: 0.0768
B. subtilis 168 [2]
  Bliss interaction score: -0.0882
S. aureus DSM 20231 [3]
  Bliss interaction score: -0.0959
S. aureus Newman [4]
  Bliss interaction score: 0.0602
S. pneumoniae D39V [5]; [20]
  fitness: 0.909
S. pneumoniae D39V [5]; [21]
  fitness: 0.95
S. pneumoniae D39V [5]; [22]
  fitness: 0.921
S. pneumoniae D39V [5]; [23]
  fitness: 0.906
S. pneumoniae D39V [5]; first compound 2 µg/mL, partner 50 µg/mL
  fitness: 0.971
S. pneumoniae D39V [5]; first compound 4 µg/mL, partner 50 µg/mL
  fitness: 0.832
B. subtilis 168 [6]; first compound 0.125 µg/mL, partner 6.25 µg/mL
  fitness: 0.906
B. subtilis 168 [6]; [24]
  fitness: 0.305
B. subtilis 168 [6]; first compound 0.25 µg/mL, partner 6.25 µg/mL
  fitness: 0.895
B. subtilis 168 [6]; [25]
  fitness: 0.719
B. subtilis 168 [6]; first compound 0.5 µg/mL, partner 6.25 µg/mL
  fitness: 0.838
B. subtilis 168 [6]; [26]
  fitness: 0.598
B. subtilis 168 [6]; first compound 1 µg/mL, partner 6.25 µg/mL, one replicate
  fitness: 0.665
B. subtilis 168 [6]; first compound 1 µg/mL, partner 12.5 µg/mL, one replicate
  fitness: 0.399
B. subtilis 168 [6]; first compound 1 µg/mL, partner 25 µg/mL, one replicate
  fitness: 0.0311
S. aureus DSM 20231 [7]; [26]
  fitness: 0.814
S. aureus DSM 20231 [7]; [27]
  fitness: 0.778
S. aureus DSM 20231 [7]; [28]
  fitness: 0.808
S. aureus DSM 20231 [7]; [20]
  fitness: 0.788
S. aureus DSM 20231 [7]; [21]
  fitness: 0.721
S. aureus DSM 20231 [7]; first compound 1 µg/mL, partner 50 µg/mL
  fitness: 0.699
S. aureus DSM 20231 [7]; [22]
  fitness: 0.728
S. aureus DSM 20231 [7]; [23]
  fitness: 0.736
S. aureus Newman [8]; first compound 0.125 µg/mL, partner 12.5 µg/mL
  fitness: 0.817
S. aureus Newman [8]; [24]
  fitness: 0.79
S. aureus Newman [8]; first compound 0.125 µg/mL, partner 50 µg/mL
  fitness: 0.742
S. aureus Newman [8]; [25]
  fitness: 0.828
S. aureus Newman [8]; first compound 0.25 µg/mL, partner 25 µg/mL
  fitness: 0.815
S. aureus Newman [8]; first compound 0.25 µg/mL, partner 50 µg/mL
  fitness: 0.754
S. aureus Newman [8]; [26]
  fitness: 0.861
S. aureus Newman [8]; [27]
  fitness: 0.843
S. aureus Newman [8]; [28]
  fitness: 0.742
